Results: patent US20240376108A1, “SALT AND CRYSTAL FORM OF PYRAZOLE-CONTAINING POLYCYCLIC DERIVATIVE, AND PREPARATION METHOD THEREFOR AND USE THEREOF” (Shanghai Hansoh Biomedical Co., Ltd., priority 2021, published 2024)

Assays:
[1] = Pharmacokinetic assay of the salt forms in rats (10 mg/kg); assay type: in vivo; conditions: SD rats
Experimental: 2.3 Pharmacokinetic assay of the methanesulfonate in rats
2.3.1. Study objective: SD rats were used as test animals. The pharmacokinetic behavior of various salt forms of 2-(2-cyano-5-oxo-8-(trifluoromethyl)pyrazolo[1,5-a]pyrido[3,2-e]pyrimidin-4(5H)-yl)-N-(5-fluoropyridin-2-yl)acetamide was studied in rat body (plasma) by orally administration at a dose of 10 mg/kg.
2.3.2.4 Administration: After an overnight fast, male SD rats (3 rats per group) were administered p.o. with the test compound at a dose of 10 mg/kg and a volume of 10 mL/kg.
2.3.2.5 Sample collection: 0.2 mL of blood was taken from the jugular vein of the rat before administration and at 0, 0.5, 1, 2, 4, 6, 8 and 24 hours after administration. The samples were stored in EDTA-K2 tubes, and centrifuged for 6 minutes at 4° C., 6000 rpm to separate the plasma. The plasma samples were stored at −80° C.
1) 160 μL of acetonitrile was added to 40 μL of the plasma sample for precipitation, and then the mixture was centrifuged at 3500×g for 5 to 20 minutes.
2) After the above process, 100 μL of the supernatant was taken to analyze the concentration of the test compound by LC/MS/MS.
2.3.2.7 Liquid chromatography analysis • Liquid chromatography condition: Shimadzu LC-20AD pump • Mass spectrometry condition: AB Sciex API 4000 mass spectrometer • Chromatographic column: phenomenex Gemiu 5 um C18 50×4.6 mm • Mobile phase: Eluent A was 0.1% formic acid in water, and Eluent B was acetonitrile • Flow rate: 0.8 mL/min • Elution time: 0-4.0 minutes, the eluent is as follows:
The main parameters of pharmacokinetics were calculated by WinNonlin 8.2.

[2] = Solid stability experiment (high temperature, high humidity, high temperature and high humidity); assay type: physicochemical
Experimental: 4.1.1 Experimental objective: To investigate the physical and chemical stability of the crystal form of the compound under the conditions of high temperature, high humidity, as well as high temperature and high humidity, so as to provide a basis for crystal form screening and storage of the crystal form of the compound.
The content of the salt was determined by HPLC using the external standard method, and the change of relevant substances was calculated by using the chromatographic peak area normalization method.

[3] = Solubility experiment in different media; assay type: physicochemical; conditions: for solubility at 24 h: thermodynamic from solid
Experimental: The vials were placed on a spin mixer overnight at room temperature. After 24 hours, the sample solution was filtered through a 0.45 μm mixed aqueous fiber membrane. The content of the compound in the filtrate was determined by HPLC. [table]

[4] = Thermodynamic stability experiment (polymorphism screening of the methanesulfonate); assay type: physicochemical; conditions: pulped in solvents at 35° C. for 24 hours, XRPD
Experimental: 6.1 Polymorphism screening of the methanesulfonate of compound 2-(2-cyano-5-oxo-8-(trifluoromethyl)pyrazolo[1,5-a]pyrido[3,2-e]pyrimidin-4(5H)-yl)-N-(5-fluoropyridin-2-yl)acetamide
The mixture was magnetically pulped in a metal bath at 35° C. for 24 hours, and centrifuged. The resulting solid was dried, and the XRPD thereof was determined.

[5] = Hygroscopicity experiment (DVS); assay type: physicochemical
Summary of the method: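 Crystalline salt forms equilibrated with water vapour at a range of relative humidities (DVS). Percentage weight gain at equilibrium recorded.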

[6] = High humidity (92.5% RH), Day 7
[7] = High humidity (92.5% RH), Day 14
[8] = High temperature (60° C.), Day 7
[9] = High temperature (60° C.), Day 14
[10] = High temperature and high humidity (50° C.&75% RH), Day 7
[11] = High temperature and high humidity (50° C.&75% RH), Day 14
[12] = Cycle 1, target relative humidity 0.0%, 25° C.
[13] = Cycle 1, target relative humidity 10.0%, 25° C.
[14] = Cycle 1, target relative humidity 20.0%, 25° C.
[15] = Cycle 1, target relative humidity 30.0%, 25° C.
[16] = Cycle 1, target relative humidity 40.0%, 25° C.
[17] = Cycle 1, target relative humidity 50.0%, 25° C.
[18] = Cycle 1, target relative humidity 60.0%, 25° C.
[19] = Cycle 1, target relative humidity 70.0%, 25° C.
[20] = Cycle 1, target relative humidity 80.0%, 25° C.
[21] = Cycle 1, target relative humidity 90.0%, 25° C.
[22] = Cycle 1, target relative humidity 95.0%, 25° C.
[23] = Cycle 2, target relative humidity 0.0%, 25° C.
[24] = Cycle 2, target relative humidity 10.0%, 25° C.
[25] = Cycle 2, target relative humidity 20.0%, 25° C.
[26] = Cycle 2, target relative humidity 30.0%, 25° C.
[27] = Cycle 2, target relative humidity 40.0%, 25° C.
[28] = Cycle 2, target relative humidity 50.0%, 25° C.
[29] = Cycle 2, target relative humidity 60.0%, 25° C.
[30] = Cycle 2, target relative humidity 70.0%, 25° C.
[31] = Cycle 2, target relative humidity 80.0%, 25° C.
[32] = Cycle 2, target relative humidity 90.0%, 25° C.
[33] = Cycle 2, target relative humidity 95.0%, 25° C.

CS(=O)(=O)O.N#Cc1cc2n(CC(=O)Nc3ccc(F)cn3)c(=O)c3ccc(C(F)(F)F)nc3n2n1 [Methanesulfonate (crystal form A), 2-(2-cyano-5-oxo-8-(trifluoromethyl)pyrazolo[1,5-a]pyrido[3,2-e]pyrimidin-4(5H)-yl)-N-(5-fluoropyridin-2-yl)acetamide methanesulfonate]
exposure AUC and maximum plasma concentration Cmax compared with the free base ([1]; 10 mg/kg): superior
AUC(0-t) ([1]; male, rat, po, p.o. 10 mg/kg, plasma, vehicle 0.5% HPMC, read-out: Area under curve AUC0-t): 25800 ng·h/mL
MRT inf ([1]; male, rat, po, p.o. 10 mg/kg, plasma, vehicle 0.5% HPMC, read-out: Average residence time MRT0-∞): 4.8 h
half-life ([1]; male, rat, po, p.o. 10 mg/kg, plasma, vehicle 0.5% HPMC, read-out: Half life t1/2 (converted)): 2.7 h
Tmax ([1]; male, rat, po, p.o. 10 mg/kg, plasma, vehicle 0.5% HPMC, read-out: Peak time tmax): 4 h
Cmax ([1]; male, rat, po, p.o. 10 mg/kg, plasma, vehicle 0.5% HPMC, read-out: Plasma concentration Cmax): 3320 ng/mL
solid stability under high temperature and high humidity ([2]; 50° C.&75% RH, 7 and 14 days): stable
solid stability under high temperature ([2]; 60° C., 7 and 14 days): stable
solid stability under high humidity ([2]; 92.5% RH, 7 and 14 days): stable
% increase of total impurities [2, 6]: <0.1%
% maximum increase of single impurity [2, 6]: <0.1%
% increase of total impurities [2, 7]: <0.1%
% maximum increase of single impurity [2, 7]: <0.1%
% increase of total impurities [2, 8]: <0.2%
% maximum increase of single impurity [2, 8]: <0.1%
% increase of total impurities [2, 9]: <0.1%
% maximum increase of single impurity [2, 9]: <0.1%
% increase of total impurities [2, 10]: <0.1%
% maximum increase of single impurity [2, 10]: <0.1%
% increase of total impurities [2, 11]: <0.1%
% maximum increase of single impurity [2, 11]: <0.1%
solubility at 24 h ([3]; aqueous buffer, USP Buffer pH 3, room temperature): 4.3 µg/mL
solubility at 24 h ([3]; aqueous buffer, USP Buffer pH 4, room temperature): 3.6 µg/mL
solubility at 24 h ([3]; aqueous buffer, USP Buffer pH 5, room temperature): 3 µg/mL
solubility at 24 h ([3]; aqueous buffer, USP Buffer pH 6, room temperature): 2.4 µg/mL
solubility at 24 h ([3]; aqueous buffer, USP Buffer pH 7, room temperature): 2.2 µg/mL
solubility at 24 h ([3]; aqueous buffer, USP Buffer pH 8, room temperature): 1.8 µg/mL
solubility at 24 h ([3]; fassgf or other biorelevant, FaSSGF, room temperature): 3.3 µg/mL
solubility at 24 h ([3]; pure water, water, H2O, room temperature): 1.9 µg/mL
solubility in the corresponding media compared with crystal form II of the free base ([3]; room temperature, 24 hours, buffers, FaSSGF, FaSSIF, FeSSIF, water): increased by more than four times
solubility at 24 h ([3]; simulated gastric fluid, USP Buffer pH 1, room temperature): 2.3 µg/mL
solubility at 24 h ([3]; simulated gastric fluid, USP Buffer pH 2, room temperature): 2.3 µg/mL
solubility at 24 h ([3]; FaSSIF, room temperature): 7.8 µg/mL
solubility at 24 h ([3]; FeSSIF, room temperature): 11.3 µg/mL
thermodynamic stability of the crystal form [4]: thermodynamically stable crystal form
hygroscopicity (Chinese Pharmacopoeia description) ([5]; 25° C., relative humidity 80%): slightly hygroscopic
hygroscopic weight gain ([5]; 80% relative humidity): ≤ 0.5%
% percentage of mass change, Desorption [5, 12]: −0.029%
% percentage of mass change, Sorption [5, 12]: 0.000%
% percentage of mass change, Desorption [5, 13]: 0.030%
% percentage of mass change, Sorption [5, 13]: 0.051%
% percentage of mass change, Desorption [5, 14]: 0.082%
% percentage of mass change, Sorption [5, 14]: 0.096%
% percentage of mass change, Desorption [5, 15]: 0.133%
% percentage of mass change, Sorption [5, 15]: 0.138%
% percentage of mass change, Desorption [5, 16]: 0.190%
% percentage of mass change, Sorption [5, 16]: 0.179%
% percentage of mass change, Desorption [5, 17]: 0.253%
% percentage of mass change, Sorption [5, 17]: 0.222%
% percentage of mass change, Desorption [5, 18]: 0.320%
% percentage of mass change, Sorption [5, 18]: 0.272%
% percentage of mass change, Desorption [5, 19]: 0.395%
% percentage of mass change, Sorption [5, 19]: 0.340%
% percentage of mass change, Desorption [5, 20]: 0.502%
% percentage of mass change, Sorption [5, 20]: 0.446%
% percentage of mass change, Desorption [5, 21]: 0.760%
% percentage of mass change, Sorption [5, 21]: 0.700%
% percentage of mass change, Desorption [5, 22]: 1.109%
% percentage of mass change, Sorption [5, 22]: 1.109%
% percentage of mass change, Desorption [5, 23]: −0.046%
% percentage of mass change, Sorption [5, 23]: −0.029%
% percentage of mass change, Desorption [5, 24]: 0.014%
% percentage of mass change, Sorption [5, 24]: 0.024%
% percentage of mass change, Desorption [5, 25]: 0.067%
% percentage of mass change, Sorption [5, 25]: 0.073%
% percentage of mass change, Desorption [5, 26]: 0.118%
% percentage of mass change, Sorption [5, 26]: 0.118%
% percentage of mass change, Desorption [5, 27]: 0.177%
% percentage of mass change, Sorption [5, 27]: 0.162%
% percentage of mass change, Desorption [5, 28]: 0.241%
% percentage of mass change, Sorption [5, 28]: 0.209%
% percentage of mass change, Desorption [5, 29]: 0.305%
% percentage of mass change, Sorption [5, 29]: 0.263%
% percentage of mass change, Desorption [5, 30]: 0.378%
% percentage of mass change, Sorption [5, 30]: 0.331%
% percentage of mass change, Desorption [5, 31]: 0.480%
% percentage of mass change, Sorption [5, 31]: 0.433%
% percentage of mass change, Desorption [5, 32]: 0.734%
% percentage of mass change, Sorption [5, 32]: 0.675%
% percentage of mass change, Desorption [5, 33]: 1.076%
% percentage of mass change, Sorption [5, 33]: 1.076%
